Experimental data from patent EP0584290B1, “ENDOTHELIN ANTAGONISTS” (WARNER-LAMBERT COMPANY, priority 1991, dated 1992).
Square brackets hold non-standard residues; d marks the D form. Ends that are not written are not given here. Peptide text beside a SMILES is read from it. d1Nal = N[C@H](Cc1cccc2ccccc12)C(=O)O

Experiments:
[1] = molecular target: endothelin receptor, rat heart ventricle; assay: [125I]-ET-1 binding assay in rat heart ventricle; details: [125I]-ET-1, rat heart ventricle (10 µg), 37°C, 2 hours
Description: (§1) The compounds of Formula I are valuable antagonists of endothelin. […] Thus, the compounds of Formula I were tested for their ability to inhibit [^125I]-ET-1([^125I]-Endothelin-1) binding in a receptor assay. The binding of the compounds of Formula I is determined by incubation (37°C, 2 hours) of a compound of Formula I with [^125I]-ET-1 and the tissue (rat heart ventricle (10 µg)) in 50 mM Tris(hydroxymethyl)aminomethane hydrochloride (Tris-HCl) (pH 7.4), 5 mM ethylenediamine tetraacetic acid (EDTA), 2 mM ethylene glycol bis(β-aminoethyl ether)N,N,N',N'-tetraacetic acid (EGTA), 100 µM phenylmethylsulfonyl fluoride (PMSF), and 100 µM bacitracin containing protease inhibitors (total volume of 0.5 mL). IC50 values are calculated by weighing nonlinear regression curve-fitting to the mass-action (Langmuir) equation. The functional activity of compounds of Formula I is determined in Rat-1 cells by measuring intracellular levels of second messengers. Thus, cells were prelabeled with [^3H]-inositol and endothelin-stimulated accumulation of total [^3H]-inositol phosphates in the presence of Li^+ is monitored using anion exchange chromatography as described by Muldoon, L. L., et al, Journal of Biological Chemistry, Volume 264, pages 8529-8536 (1989) and Dudley, D. T., et al, Molecular Pharmacology, Volume 38, pages 370-377 (1990). Antagonist activity is assessed as the ability of added compounds to reduce endothelin-stimulated inositol phosphate accumulation. Antagonist activity was also measured by the ability of added compounds to reduce endothelin-stimulated arachidonic acid release in cultured vascular smooth muscle cells as (AAR) described in Reynolds, E., Mok, K., Faseb J., 1991, 5, A1066. The data in the table show the endothelin antagonist activity of representative compounds of Formula I. TABLE 1

Rat-1 cells = molecular target: T1, Rat-1 cells (Rattus norvegicus, UniProt P26684); assay: Endothelin-stimulated inositol phosphate (IP) accumulation in Rat-1 cells; assay type: cell-based
T1 sequence (P26684 21-426): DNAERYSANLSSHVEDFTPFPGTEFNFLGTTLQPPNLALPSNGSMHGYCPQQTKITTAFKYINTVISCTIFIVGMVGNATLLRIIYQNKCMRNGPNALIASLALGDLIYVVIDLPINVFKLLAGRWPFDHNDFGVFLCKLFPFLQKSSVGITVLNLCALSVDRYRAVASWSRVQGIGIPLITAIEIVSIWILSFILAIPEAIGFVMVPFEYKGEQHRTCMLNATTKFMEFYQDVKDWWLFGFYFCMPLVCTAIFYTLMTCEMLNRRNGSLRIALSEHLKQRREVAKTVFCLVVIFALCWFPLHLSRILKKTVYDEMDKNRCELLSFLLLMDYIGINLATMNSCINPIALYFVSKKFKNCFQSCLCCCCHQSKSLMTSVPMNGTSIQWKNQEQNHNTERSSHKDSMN
Description: as §1, with “Antagonist activity is assessed as the ability of added compounds to reduce endothelin-stimulated inositol phosphate accumulation. Antagonist activity was also measured by the ability of added compounds to reduce endothelin-stimulated arachidonic acid release in cultured vascular smooth muscle cells as (AAR) described in Reynolds, E., Mok, K., Faseb J., 1991, 5, A1066. The data in the table show the endothelin antagonist activity of representative compounds of Formula I. TABLE 1” left out

ET receptor = details: relative to ET-1; cited from earlier work

Molecule | IC50 [1] [µM] | other results
CC[C@H](C)[C@H](NC(=O)[C@H](CC(=O)O)NC(=O)[C@H](CC(C)C)NC(=O)[C@@H](Cc1ccccc1)NC(C)=O)C(=O)N[C@H](C(=O)N[C@@H](Cc1c[nH]c2ccccc12)C(=O)O)[C@@H](C)CC [Example 1, Ac-D-Phe-Leu-Asp-Ile-Ile-Trp] (Ac-[dF]LDIIW-OH) | 0.72 | –
CC[C@H](C)[C@H](NC(=O)[C@H](CC(=O)O)NC(=O)[C@H](CC(C)C)NC(=O)[C@H](N)Cc1cccc2ccccc12)C(=O)N[C@H](C(=O)N[C@@H](Cc1c[nH]c2ccccc12)C(=O)O)[C@@H](C)CC [Example 4, D-1-Nal-Leu-Asp-Ile-Ile-Trp] (H-[d1Nal]LDIIW-OH) | – | inhibition at 50 µM (Rat-1 cells): 53%
CC[C@H](C)[C@H](NC(=O)[C@H](CC(=O)O)NC(=O)[C@H](CC(C)C)NC(=O)[C@@H](Cc1ccccc1)NC(C)=O)C(=O)N[C@@H](Cc1c[nH]c2ccccc12)C(=O)O [Example 6, Ac-D-Phe-Leu-Asp-Ile-Trp] (Ac-[dF]LDIW-OH) | 24.5 | –
CC[C@@H](C)[C@@H](NC(=O)[C@@H](NC(=O)[C@@H](CC(=O)O)NC(=O)[C@H](CC(C)C)NC(=O)[C@@H](Cc1c[nH]cn1)NC(C)=O)[C@@H](C)CC)C(=O)N[C@@H](Cc1c[nH]c2ccccc12)C(=O)O [Example 7, Ac-D-His-Leu-D-Asp-Ile-D-Ile-Trp] (Ac-[dH]L[dD]I[dI]W-OH) | 6.03 | –
CC[C@H](C)[C@H](NC(=O)[C@H](CC(=O)O)NC(=O)[C@@H](Cc1ccccc1)NC(C)=O)C(=O)N[C@H](C(=O)N[C@@H](Cc1c[nH]c2ccccc12)C(=O)O)[C@@H](C)CC [Example 11, Ac-D-Phe-Asp-Ile-Ile-Trp] (Ac-[dF]DIIW-OH) | 2.15 | –
ET[1-20]: ET-1 analogue without the C-terminal amino acid (Trp-21) (CSCSSLMDKECVYFCHLDII; not fully specified (bridges); ends and bridges not checked; UniProt P05305 53-72, looked up, fragment) | – | less functional activity (ET receptor): approximately 1000 fold
